The target of experiment [1] is T1, mDab1 PTB (Mus musculus, UniProt P97318).
T1 construct: the region corresponding to the mDab1 PTB, residues 29 to 197; made in house; host or cells: Escherichia coli strain TG-1
T1 sequence (P97318 29-197): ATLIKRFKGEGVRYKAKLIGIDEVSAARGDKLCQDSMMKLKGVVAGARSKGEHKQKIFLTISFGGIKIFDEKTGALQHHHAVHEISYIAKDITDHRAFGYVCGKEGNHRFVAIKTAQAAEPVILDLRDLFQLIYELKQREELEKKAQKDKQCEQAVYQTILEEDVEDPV
Kind of experiment: Competition of GST-mDab1 PTB binding to LUVs containing PtdIns4,5P2 by inositol phosphates. Here is the method: GST fusion proteins containing the Shc or mDab1 PTB domain were compared for their ability to bind LUVs that contained phosphotidylisositol 4,5 P2 (PtdIns4,5P2), phosphatidylserine (PtdSer) and phosphatidylethanolamine (PtdEth). Methods for the production of LUVs and assays for binding to Shc phosphotyrosine-binding domains can found in Ravichandran, et al., Mol. Cell. Biol. 17:5540-5549 (1997) which is incorporated herein by reference. After the fusion proteins and a GST control were incubated with the LUVs the reactions were centrifuged and the presence of the fusion proteins were detected by SDS PAGE and Western blotting with antibodies to GST as described above. GST-Shc PTB and GST-mDab1 PTB fusion proteins were found in the high speed pellet fraction in the presence of but not in the absence of LUVs. While the GST fusion protein control was found in the high speed supernatant in the presence of absence of the LUVs.
The specificity of mDab1 PTB binding to phospholipids was also determined. For these studies LUVs were prepared containing equal quantities of PtdSer, phosphatidylcholine (PtdCho) and Ptd Eth, and 0 or 5% by weight of PtdIns4P, PtdIns4,5P2, or PdtIns3,4,5P3. This corresponded to approximately 7.5 μM phosphoinositide in the outer leaflet of the lipid bilayer. Detection of binding to the LUVs was determined as described above.
mDab1 PTB binding to LUVs containing phosphoinositides in the presence of various phosphorylated isomers of inositol was also examined to determine whether the binding of mDab1 PTB to phosphoinositides was specific or was the result of a strong affinity for strongly anionic phospholipids. […] Binding was competed with D-Ins1,4,5P3, but not by L-Ins1, 4,5P3.

Experiment [2] deals with T1, mDab1 PTB. Kind of experiment: GST-mDab1 PTB binding of tyrosine phosphorylated proteins from E13 mouse head lysates in the presence of phosphoamino acid competitors. Particulars: competitor in binding buffer (50 mM). As to the method:
Lysates from 293T cells transfected with retroviral vectors encoding mDab555 alone; Src 527F alone; Src527F and mDab555 together; or Src527F and mDab1 98/200F, which is described in more detail below, were either bound to immobilized GST fusions proteins or were immunoprecipitated with anti-mDab1 or preimmune antibodies. Binding assays and analysis were carried out essentially as described for immunoprecipitations with 5 μg of GST fusion protein immobilized on glutathione agarose beads. Phenyl phosphate and phosphoserine were used at 50 mM for competition experiments. After washing, mDab1 bound to the immobilized SH2 domains was detected by immunoblotting. […] The Abl and Csk SH2 domains do form high affinity complexes with other tyrosine phosphorylated molecules however (Sabe et al., Proc. Natl. Acad. Sci. USA 91:3984-3988 (1994); Duyster et al., ibid. (1995)).
To examine whether the mDab1 PTB binds proteins that are tyrosine phosphorylated during neural development, a GST fusion protein containing the mDab1 PTB, a mutant mDab1 PTB in which Arg 56 was changed to Glu (mDab1 56E) or GST alone. was incubated with lysates from E13 mouse heads. Bound proteins were eluted, resolved and immunoblotted with anti-phosphotyrosine antibodies. The mDab1 PTB bound tyrosine phosphorylated proteins of 200, 120, 50-65 and 40 kDa.
To test whether the binding of proteins to the mDab1 PTB is phosphotyrosine dependent, binding experiments were done in the presence of the phosphotyrosine analog phenylphosphate. The assays was conducted as described above and phenylphosphate or phosphoserine were included in the binding buffer to investigate binding specificity. Proteins were eluted and analyzed as described above. […] However the binding of the 50-65 kDa proteins was not affected by either competitor.

The next experiment addresses T2, mDab1 PTB domain (Mus musculus, UniProt P97318).
T2 construct: the region corresponding to the mDab1 PTB, residues 29 to 197; made in house; host or cells: Escherichia coli strain TG-1
T2 sequence (P97318 29-197): T1 sequence (P97318 29-197)
In words: Binding of radioactively labeled GST-mDab1 PTB domain fusion protein to synthetic peptides in a grid array on cellulose. Particulars: 15 to 17 residue peptides with NPXY motifs on cellulose sheet. Here is the method:
The ability of the mDab1 PTB domain to interact directly with synthetic peptides based on the sequences identified in the two-hybrid screen was tested to identify the optimal sequence for mDab1 PTB domain binding. […] The purified, radioactive fusion protein was then incubated with a sheet of cellulose paper onto which different 15 to 17 residue synthetic peptides had been synthesized in a grid array (Niebuhr, et al., EMBO J. 16:5433-5444 (1997), incorporated herein by reference). Each sheet contained up to 100 different peptide sequences. After incubation, the sheet was washed and exposed to film, and bound PTB domain fusion protein was quantified. […] The mDab1 PTB domain was tested against peptides containing NPXY motifs from APP, the APP relatives APLP1 and APLP2, LRP, the LRP-related LDL receptor, Ship, and known ligands for the Shc and IRS-1 PTB domains, namely the EGF receptor, HER3 receptor, NGF receptor (TrkA), and insulin receptor. The mDab1 PTB domain was also tested against peptide motifs with phosphotyrosine in place of the tyrosine of the NPXY sequence (i.e. NPXpY peptides). The amount of radioactivity associated with each peptide was quantified with a PhosphorImager (Molecular Dynamics), and depicted as a percentage of that which associated with the APP peptide.
To determine which residues in the APP sequence are involved in the interaction with the mDab1 PTB, an array of peptides based on the APP sequence with alanine substituted at each position in turn were synthesized. The ability of each peptide to bind to the PTB domain was compared to wild-type. […] Only the side chains of residues on the amino-terminal side of the NPXY motif appear to influence the strength of the interaction.
To determine the features of the APP peptide that were recognized by the mDab1 PTB domain, all nineteen amino acids, except cysteine, were substituted at several positions. In all cases the mDab1 PTB domain bound better to the wild-type APP sequence than to any altered sequence. Most substitutions of residues Gly-6, Tyr-5, Asn-3, Pro-2 and Tyr-0 inhibited PTB domain binding by greater than 80%. […] For example, the significant binding of the p150 Ship, LRP, and LDL receptor peptides implies that replacement of Tyr-5 with phenylalanine is permitted provided other changes are also made.

No end group written: not given here.

Regarding `O=P(O)(O)O[C@@H]1[C@H](O)[C@H](O)[C@@H](OP(=O)(O)O)[C@H](OP(=O)(O)O)[C@H]1O` [D-Ins1,4,5P3], the “competition of GST-mDab1 PTB binding to LUVs containing PtdIns4,5P2” value at mDab1 PTB [1] (competitor at 30 μM) is on record as “weak competition”; on mDab1 PTB [1] (competitor at 100 μM), “competed”.
With `O=P(O)(O)O[C@@H]1[C@@H](O)[C@H](OP(=O)(O)O)[C@@H](OP(=O)(O)O)[C@H](O)[C@@H]1O` [L-Ins1, 4,5P3], at mDab1 PTB [1] (competitor at 100 μM), the “competition of GST-mDab1 PTB binding to LUVs containing PtdIns4,5P2” value was “not”.
In the case of `O=P(O)(O)Oc1ccccc1` [phenylphosphate], on mDab1 PTB [2], the “binding of the 50-65 kDa proteins to mDab1 PTB in presence of competitor” value is given as “not affected”; the “binding of the 120 and 40 kDa phosphotyrosyl proteins to mDab1 PTB in presence of competitor” value is “reduced significantly”.
For the molecule `N[C@@H](COP(=O)(O)O)C(=O)O` [phosphoserine], at mDab1 PTB [2], the “binding of the 50-65 kDa proteins to mDab1 PTB in presence of competitor” value was “not affected”; the “binding of the 120 and 40 kDa phosphotyrosyl proteins to mDab1 PTB in presence of competitor” value is on record as “to a less extent”.
Turning to IIENPQY [SEQ ID NO:33], the “binding of mDab1 PTB domain to peptide” value in the experiment with mDab1 PTB domain is on record as “failed to interact”.
As for MFENPLY [SEQ ID NO:30], the “binding of mDab1 PTB domain to peptide” value with mDab1 PTB domain is recorded as “better than the other”.
On the same count and under the same terms, under NFDNPVY [SEQ ID NO:29] stands “bound”; under “NFTNPVY [SEQ ID NO:28, peptide with the more carboxy-terminal NPXY motif of LRP]”, “bound”.
On the same count and under the same terms, under NSSNPEY [SEQ ID NO:34] stands “failed to interact”.
The same measure, in the same setting: under NVGNPEY [SEQ ID NO:32] stands “failed to interact”.

The record behind these values is US7250505B1, “Isolation and expression of a disabled protein gene mDab1 and methods” (Fred Hutchinson Cancer Research Center, priority 1997, dated 2007).
